Assay results from US7553966B2, “Glucocorticoid mimetics, methods of making them, pharmaceutical compositions, and uses thereof” (Boehringer Ingelheim Pharmaceuticals, Inc., priority 2002, dated 2009).

What was measured:
[1] = biological target: T1, human glucocorticoid receptor (GR) complex (Homo sapiens, UniProt P04150); assay: Glucocorticoid Receptor Competitive Binding Assay (fluorescence polarization, TAMRA-labeled dexamethasone probe); conditions: qualitative statement; competition with TAMRA-labeled dexamethasone
T1 construct: made in house; host or cells: insect expression system (baculovirus lysate)
T1 sequence (P04150 1-777): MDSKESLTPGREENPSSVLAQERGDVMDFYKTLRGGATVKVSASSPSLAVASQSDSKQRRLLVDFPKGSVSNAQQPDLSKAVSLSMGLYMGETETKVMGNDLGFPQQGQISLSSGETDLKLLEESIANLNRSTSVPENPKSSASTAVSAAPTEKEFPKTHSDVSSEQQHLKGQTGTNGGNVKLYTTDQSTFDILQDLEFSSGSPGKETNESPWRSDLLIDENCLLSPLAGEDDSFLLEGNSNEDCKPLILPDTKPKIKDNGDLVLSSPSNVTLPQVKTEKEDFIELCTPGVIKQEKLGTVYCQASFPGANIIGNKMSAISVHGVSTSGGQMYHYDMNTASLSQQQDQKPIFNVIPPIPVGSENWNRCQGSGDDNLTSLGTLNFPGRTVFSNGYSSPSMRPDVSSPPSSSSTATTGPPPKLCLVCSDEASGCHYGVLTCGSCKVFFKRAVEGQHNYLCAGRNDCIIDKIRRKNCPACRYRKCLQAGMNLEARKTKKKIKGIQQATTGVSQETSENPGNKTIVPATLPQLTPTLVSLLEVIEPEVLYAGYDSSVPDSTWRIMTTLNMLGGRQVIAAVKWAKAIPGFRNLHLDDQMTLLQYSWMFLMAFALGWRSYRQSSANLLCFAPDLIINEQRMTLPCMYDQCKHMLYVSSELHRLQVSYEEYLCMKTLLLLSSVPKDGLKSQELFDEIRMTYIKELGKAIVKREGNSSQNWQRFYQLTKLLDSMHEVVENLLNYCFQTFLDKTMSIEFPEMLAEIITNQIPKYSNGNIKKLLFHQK
Method in brief: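 Competition with TAMRA-dexamethasone for a human GR complex expressed in insect cells, read by fluorescence polarization. Buffer was 10 mM TES, 50 mM KCl, 20 mM Na2MoO4, 1.5 mM EDTA, 0.04% CHAPS, 10% glycerol, 1 mM DTT, pH 7.4.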

glucocorticoid receptor = assay: Glucocorticoid Receptor Cell Assays (agonist activity in one or more of the above assays); type: cell-based; conditions: qualitative statement; assay not specified

SMILES: Cc1ccc(F)cc1C(C)(C)CC(O)(Cc1cc2cc(C#N)ccc2[nH]1)C(F)(F)F (stereo not drawn) [2-[4-(5-Fluoro-2-methylphenyl)-2-hydroxy-4-methyl-2-trifluoromethylpentyl]-1H-indole-5-carbonitrile]
- activity in the GR binding assay [1]: potent activity
- activity as agonists of the glucocorticoid receptor function in one or more of the above assays (glucocorticoid receptor): potent agonists

SMILES: Cc1ccc(F)cc1C(C)(C)CC(O)(Cc1cc2c(C)cc(C#N)cc2[nH]1)C(F)(F)F (stereo not drawn) [2-[4-(5-Fluoro-2-methylphenyl)-2-hydroxy-4-methyl-2-trifluoromethylpentyl]-4-methyl-1H-indole-6-carbonitrile]
- activity in the GR binding assay [1]: potent activity
- activity as agonists of the glucocorticoid receptor function in one or more of the above assays (glucocorticoid receptor): potent agonists

SMILES: CC(C)(CC(O)(Cc1cc2ccncc2[nH]1)C(F)(F)F)c1cccc2c1OCC2 (stereo not drawn) [4-(2,3-Dihydrobenzofuran-7-yl)-1,1,1-trifluoro-4-methyl-2-(1H-pyrrolo[2,3-c]pyridin-2-ylmethyl)pentan-2-ol]
- activity in the GR binding assay [1]: potent activity
- activity as agonists of the glucocorticoid receptor function in one or more of the above assays (glucocorticoid receptor): potent agonists

SMILES: CC(C)(CC(O)(Cc1cc2cnccc2[nH]1)C(F)(F)F)c1cccc2c1OCC2 (stereo not drawn) [4-(2,3-Dihydrobenzofuran-7-yl)-1,1,1-trifluoro-4-methyl-2-(1H-pyrrolo[3,2-c]pyridin-2-ylmethyl)pentan-2-ol]
- activity in the GR binding assay [1]: potent activity
- activity as agonists of the glucocorticoid receptor function in one or more of the above assays (glucocorticoid receptor): potent agonists

SMILES: CC(C)(CC(O)(Cc1ccnc2ccccc12)C(F)(F)F)c1cccc2c1OCC2 (stereo not drawn) [4-(2,3-Dihydrobenzofuran-7-yl)-1,1,1-trifluoro-4-methyl-2-quinolin-4-ylmethylpentan-2-ol]
- activity in the GR binding assay [1]: potent activity
- activity as agonists of the glucocorticoid receptor function in one or more of the above assays (glucocorticoid receptor): potent agonists

SMILES: CC(C)(CC(O)(Cc1cc2ccccc2[nH]1)C(F)(F)F)c1cccc2c1OCC2 (stereo not drawn) [4-(2,3-dihydrobenzofuran-7-yl)-1,1,1-trifluoro-2-(1H-indol-2-ylmethyl)-4-methylpentan-2-ol]
- activity in the GR binding assay [1]: potent activity
- activity as agonists of the glucocorticoid receptor function in one or more of the above assays (glucocorticoid receptor): potent agonists

SMILES: CC(C)(CC(O)(Cc1cc2ccccc2[nH]1)C(F)(F)F)c1cc(Br)cc2c1OCC2 (stereo not drawn) [4-(5-Bromo-2,3-dihydrobenzofuran-7-yl)-1,1,1-trifluoro-2-(1H-indol-2-ylmethyl)-4-methylpentan-2-ol]
- activity in the GR binding assay [1]: potent activity
- activity as agonists of the glucocorticoid receptor function in one or more of the above assays (glucocorticoid receptor): potent agonists

SMILES: CC(C)(CC(O)(Cc1ccnc2ccccc12)C(F)(F)F)c1cc(Br)cc2c1OCC2 (stereo not drawn) [4-(5-Bromo-2,3-dihydrobenzofuran-7-yl)-1,1,1-trifluoro-4-methyl-2-quinolin-4-ylmethylpentan-2-ol]
- activity in the GR binding assay [1]: potent activity
- activity as agonists of the glucocorticoid receptor function in one or more of the above assays (glucocorticoid receptor): potent agonists

SMILES: COc1ccc(Br)cc1C(C)(C)CC(O)(Cc1cc2ccccc2[nH]1)C(F)(F)F (stereo not drawn) [4-(5-Bromo-2-methoxyphenyl)-1,1,1-trifluoro-2-(1H-indol-2-ylmethyl)-4-methylpentan-2-ol]
- activity in the GR binding assay [1]: potent activity
- activity as agonists of the glucocorticoid receptor function in one or more of the above assays (glucocorticoid receptor): potent agonists

SMILES: COc1ccc(Br)cc1C(C)(C)CC(O)(Cc1ccnc2ccccc12)C(F)(F)F (stereo not drawn) [4-(5-Bromo-2-methoxyphenyl)-1,1,1-trifluoro-4-methyl-2-quinolin-4-ylmethylpentan-2-ol]
- activity in the GR binding assay [1]: potent activity
- activity as agonists of the glucocorticoid receptor function in one or more of the above assays (glucocorticoid receptor): potent agonists

SMILES: COc1cc(F)c(Br)cc1C(C)(C)CC(O)(Cc1ccnc2ccccc12)C(F)(F)F (stereo not drawn) [4-(5-Bromo-4-fluoro-2-methoxyphenyl)-1,1,1-trifluoro-4-methyl-2-quinolin-4-ylmethylpentan-2-ol]
- activity in the GR binding assay [1]: potent activity
- activity as agonists of the glucocorticoid receptor function in one or more of the above assays (glucocorticoid receptor): potent agonists

SMILES: CC(C)(CC(O)(Cc1ccnc2ccccc12)C(F)(F)F)c1cc(Br)c2c(c1)CCO2 (stereo not drawn) [4-(7-Bromo-2,3-dihydrobenzofuran-5-yl)-1,1,1-trifluoro-4-methyl-2-quinolin-4-ylmethylpentan-2-ol]
- activity in the GR binding assay [1]: potent activity
- activity as agonists of the glucocorticoid receptor function in one or more of the above assays (glucocorticoid receptor): potent agonists

SMILES: CC(C)(CC(O)(Cc1ccnc2ccccc12)C(F)(F)F)c1cc(Br)ccc1O (stereo not drawn) [4-Bromo-2-(4,4,4-trifluoro-3-hydroxy-1,1-dimethyl-3-quinolin-4-ylmethylbutyl)phenol]
- activity in the GR binding assay [1]: potent activity
- activity as agonists of the glucocorticoid receptor function in one or more of the above assays (glucocorticoid receptor): potent agonists

SMILES: CC(C)(CC(O)(Cc1cc2ccncc2[nH]1)C(F)(F)F)c1cc(F)ccc1O (stereo not drawn) [4-Fluoro-2-[4,4,4-trifluoro-3-hydroxy-1,1-dimethyl-3-(1H-pyrrolo[2,3-c]pyridin-2-ylmethyl)butyl]phenol]
- activity in the GR binding assay [1]: potent activity
- activity as agonists of the glucocorticoid receptor function in one or more of the above assays (glucocorticoid receptor): potent agonists

SMILES: CC(C)(CC(O)(Cc1cc2cnccc2[nH]1)C(F)(F)F)c1cc(F)ccc1O (stereo not drawn) [4-Fluoro-2-[4,4,4-trifluoro-3-hydroxy-1,1-dimethyl-3-(1H-pyrrolo[3,2-c]pyridin-2-ylmethyl)butyl]phenol]
- activity in the GR binding assay [1]: potent activity
- activity as agonists of the glucocorticoid receptor function in one or more of the above assays (glucocorticoid receptor): potent agonists

SMILES: Cc1cccc2[nH]c(CC(O)(CC(C)(C)c3cc(F)ccc3O)C(F)(F)F)cc12 (stereo not drawn) [4-Fluoro-2-[4,4,4-trifluoro-3-hydroxy-1,1-dimethyl-3-(4-methyl-1H-indol-2-ylmethyl)butyl]phenol]
- activity in the GR binding assay [1]: potent activity
- activity as agonists of the glucocorticoid receptor function in one or more of the above assays (glucocorticoid receptor): potent agonists

SMILES: CC(C)(CC(O)(Cc1ccnc2ccccc12)C(F)(F)F)c1ccc(F)cc1O (stereo not drawn) [5-Fluoro-2-(4,4,4-trifluoro-3-hydroxy-1,1-dimethyl-3-quinolin-4-ylmethylbutyl)phenol]
- activity in the GR binding assay [1]: potent activity
- activity as agonists of the glucocorticoid receptor function in one or more of the above assays (glucocorticoid receptor): potent agonists

SMILES: CC(C)(CC(O)(Cc1cc2ccncc2[nH]1)C(F)(F)F)c1ccc(F)cc1O (stereo not drawn) [5-Fluoro-2-[4,4,4-trifluoro-3-hydroxy-1,1-dimethyl-3-(1H-pyrrolo[2,3-c]pyridin-2-ylmethyl)butyl]phenol]
- activity in the GR binding assay [1]: potent activity
- activity as agonists of the glucocorticoid receptor function in one or more of the above assays (glucocorticoid receptor): potent agonists
